Measurements: PubChem BioAssay (NCI)
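How tested: cells in 96-well plates exposed to compound for 48 hours at five concentrations. GI50: concentration for 50% inhibition of growth. TGI: total growth inhibition.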

Legend:
Assay in all cases: NCI tumour cell line growth inhibition, 48 h
[1] = tested on: DU-145 prostate
[2] = tested on: HCC-2998 colon
[3] = tested on: MALME-3M melanoma
[4] = tested on: MDA-N
[5] = tested on: NCI/ADR-RES ovarian
[6] = tested on: OVCAR-3 ovarian
[7] = tested on: SK-MEL-2 melanoma
[8] = tested on: SNB-19 CNS
[9] = tested on: SNB-75 CNS
[10] = tested on: T-47D breast

Row | Structure (SMILES) | TGI [1] [µM] | TGI [2] [µM] | TGI [3] [µM] | TGI [4] [µM] | TGI [5] [µM] | TGI [6] [µM] | TGI [7] [µM] | TGI [8] [µM] | TGI [9] [µM] | TGI [10] [µM] | GI50 [1] [µM] | GI50 [2] [µM] | GI50 [3] [µM] | GI50 [4] [µM] | GI50 [5] [µM] | GI50 [8] [µM] | GI50 [9] [µM] | GI50 [10] [µM]
1 | CSc1cc(Cl)c(C)cc1S(=O)(=O)NC(=O)NNc1ccccn1 | > 100 | > 100 | > 100 | > 100 | > 100 | > 100 | > 100 | > 100 | > 100 | > 100 |  |  |  |  |  |  |  | 
2 | Cc1ccc(NNc2cc(=O)[nH]c(=O)[nH]2)cc1Cl | > 100 | 29.8 | 31.9 | 28.6 | > 100 | 28 | 30.9 | > 100 | > 100 | 25.1 |  |  |  |  |  |  |  | 
3 | C=C(Br)C(Cl)(CBr)CCC(Br)C(C)(C)Cl (stereo not drawn) | > 10 | > 10 |  | > 10 | > 10 | > 10 | > 10 | > 10 | > 10 | > 10 |  |  |  |  |  |  |  | 
4 | Cc1ccc(N2C(=O)CC(=O)N(NC(=O)C(C)Oc3ccccc3C)C2=S)cc1 (stereo not drawn) | > 100 | > 100 | > 100 | > 100 | > 100 | > 100 | > 100 | > 100 | > 100 | > 100 |  |  |  |  |  |  |  | 
5 | CCC(/C=C/c1ccccc1)=N\NC(=S)N/N=C(/C=C/c1ccccc1)CC | > 100 | > 100 | > 100 | > 100 | > 100 | > 100 |  | > 100 | > 100 | > 100 |  |  |  |  |  |  |  | 
6 | CCCC(=O)N[C@@H](Cc1cc(I)c(O)c(I)c1)C(=O)NCCCNCCCCNCCCNC(=O)[C@@H](N)CCCN=C(N)N |  | > 100 | > 100 |  |  | > 100 |  | > 100 |  |  |  |  |  |  |  |  |  | 
7 | C/C(=N/NC(=S)N(Cc1ccccn1)Cc1ccccn1)c1cnccn1 | > 33.3 | > 43.4 | 7.53 | 31.2 |  | 12.6 | 26 | 18.8 | 17.2 | > 33.8 |  |  |  |  |  |  |  | 
8 | CC1CSc2nc3[nH]c(=S)[nH]c3c(=O)n2C1 (stereo not drawn) | > 100 | > 100 | > 100 |  | > 100 | > 100 |  | > 100 | > 100 | > 100 |  |  |  |  |  |  |  | 
9 | CC(=O)/C=C/c1c[nH]c(=O)[nH]c1=O |  | 480 | 444 |  | 781 | 608 | 444 | 903 | 681 |  |  |  |  |  |  |  |  | 
10 | O=C(CN=C(CN(c1ccccc1)c1ccccc1)Oc1c([N+](=O)[O-])cc([N+](=O)[O-])cc1[N+](=O)[O-])N1CCNCC1 | > 100 | > 100 | > 100 | > 100 |  | > 100 |  | > 100 | > 100 | > 100 |  |  |  |  |  |  |  | 
11 | Cc1ccc(S(=O)(=O)OCC23CCC(C4CC42)C2CC23)cc1 (stereo not drawn) |  | > 100 | > 100 |  |  | > 100 |  | > 100 |  |  |  |  |  |  |  |  |  | 
12 | O=C(/C=C/c1ccc(Cl)c(Cl)c1)CCN1CCN(CCC(=O)/C=C/c2ccc(Cl)c(Cl)c2)CC1 | 54.4 | 28.9 |  |  | > 100 | 58.4 | 92.6 |  | > 100 | 77.4 |  |  |  |  |  |  |  | 
13 | CCOC(=O)c1ccc(Nc2nc3ccc(C(F)(F)F)cc3nc2-c2ccccc2)cc1 | > 100 | > 100 | > 100 |  | > 100 | > 100 |  | > 100 | > 100 | 87.1 |  |  |  |  |  |  |  | 
14 | COc1cc2cnc3c(c2cc1OC)Cc1cc2c(cc1-3)OCO2 | > 54.1 | 0.0562 | 74.9 | > 100 | > 81.5 |  |  | 37.7 | > 49.3 | > 100 | 0.0338 | < 0.01 | < 0.01 | > 100 | < 0.01 | 0.0486 | 0.0109 | 1.71
15 | Cc1cc2nc3c(C(O)CO)nn(-c4ccccc4)c3nc2cc1C (stereo not drawn) | 33.1 |  |  | 40.6 | 44.7 | 35.1 | 56.2 | 56.1 | 51.9 | 91.5 |  |  |  |  |  |  |  | 
16 | COc1ccc(NC(C)=O)c(C(=O)CCNC(C)=O)c1 | > 100 |  |  | > 100 | > 100 | > 100 | > 100 | > 100 | > 100 | > 100 |  |  |  |  |  |  |  | 
17 | FC(F)(F)C1(C(F)(F)F)OC(Cl)(Cl)C(Cl)(Cl)O1 | > 10 | > 10 | > 10 | > 10 | > 10 | > 10 | > 10 | > 10 |  | > 10 |  |  |  |  |  |  |  | 
18 | CCOP(=O)(OCC)C(Cc1ccccc1)N=C(c1ccccc1)c1ccccc1 (stereo not drawn) | 36.3 |  | 40.9 | 29.1 | 28.7 | 30.3 | 38.2 | 32.3 | 24.2 | 26.6 |  |  |  |  |  |  |  | 
19 | CCOC(=O)NNC1(SC)NC(=O)c2c(cc(Cl)oc2=O)O1 (stereo not drawn) | 19.7 | 16.1 |  | 22.2 | 25.7 | 10.9 | 24 | 25.4 | 22.2 | 29.9 |  |  |  |  |  |  |  | 
20 | C=C1CC(CNc2cc(Cl)nc(N)n2)C1 | > 100 | > 100 | > 100 | > 100 | > 100 | > 100 | > 100 | > 100 | > 100 |  |  |  |  |  |  |  |  | 
21 | COc1cccc2c1C(=O)c1ccc3cc(CO)cc(O)c3c1C2=O | 3.31 |  | 0.202 | 0.352 | 2.28 | 0.497 | 2.99 | 5.85 | 9.4 | 4.96 |  |  |  |  |  |  |  | 
22 | CSc1nc(-c2cc3c(c(SC)n2)CCC3)cc2c1CCC2 | > 100 | > 100 |  | > 100 | > 100 | > 100 | > 100 | > 100 | > 100 |  |  |  |  |  |  |  |  | 
23 | CCCN(CCC)C(=O)Cc1c2n(c3ccccc13)Cc1ccccc1-2 |  | > 100 | > 100 |  |  | > 100 | > 100 | > 100 | > 100 |  |  |  |  |  |  |  |  | 
24 | Cc1ccc(-c2c(C#N)c(S)n(NS(=O)(=O)c3ccccc3)c(=O)c2C#N)cc1 | > 100 | > 100 | > 100 | > 100 | 39.8 | > 100 | > 100 | > 100 | 97.2 |  |  |  |  |  |  |  |  | 
